According to patent publication US10596218B2, “Coix seed oil containing 16 glycerides, and pharmaceutical preparation and use thereof” (ZHEJIANG KANGLAITE GROUP CO., LTD., priority 2014, dated 2020):
In brackets after ≈: the same amount, converted by molar mass.

Tests used:
Format in all cases: cell-based
[1] = test system: PANC-1 (human pancreatic cancer cells); assay: MTT inhibition of cell growth in vitro, PANC-1; conditions: PANC-1, MTT, 48 h, read-out: IC50 values of samples in vitro
Source text: (§1) (1) Cell lines: PANC-1 (human pancreatic cancer cells), SKOV3 (human ovarian cancer cells), MCF-7 (human breast cancer cells), Bcap-37 (human breast cancer cells), SMMC-7721 (human hepatic cancer cells), HepG-2 (human hepatic cancer cells), A549 (human lung cancer cells) and H460 (human lung cancer cells), storaged and passaged maintainably in Research and Evaluation Center for Pharmacology, Shanghai Institute of Pharmaceutical Industry;
(§2) The inhibition effects of samples on the above-mentioned cell lines were detected by using MTT method. The specific procedures were as follows: […]
(§3) (4) Cells in a logarithmic growth stage were trypsinized and washed, then re-suspended in the medium containing 10% calf serum. The number of living cells was counted in Trypan blue dye exclusion method and cell suspensions were adjusted into a density of 2×10^5 cell/ml. […]
(§4) (7) 100 μl of crystal dissolving solution was added into each well and cells were incubated continuously in the incubator overnight, so as to dissolve the resulted formazan crystals sufficiently. Then, the absorbance value was measured at 570 nm for each well.
(§5) (8) Based on absorbance values, inhibition rates on the cell growth were calculated for sample groups of various concentrations. The calculation formula was as follows: (1−mean absorbance of experimental wells/mean absorbance of control wells)×100%

[2] = test system: SKOV3 (human ovarian cancer cells); assay: MTT inhibition of cell growth in vitro, SKOV3; conditions: SK-OV-3, 48 h, read-out: IC50 values of samples in vitro
Source text: as §1, §2, §3, §4, §5

[3] = test system: Bcap-37 (human breast cancer cells); assay: MTT inhibition of cell growth in vitro, Bcap-37; conditions: Bcap37, Bcap-37, MTT, 48 h, read-out: IC50 values of samples in vitro
Source text: as §1, §2, §3, §4, §5

[4] = test system: SMMC-7721 (human hepatic cancer cells); assay: MTT inhibition of cell growth in vitro, SMMC-7721; conditions: SMMC-7721, MTT, 48 h, read-out: IC50 values of samples in vitro
Source text: as §1, §2, §3, §4, §5

[5] = test system: H460 (human lung cancer cells); assay: MTT inhibition of cell growth in vitro, H460; conditions: NCI-H460, 48 h, read-out: IC50 values of samples in vitro
Source text: as §1, §2, §3, §4, §5

CC(=O)O[C@H]1C(=O)[C@@]2(C)[C@H]([C@H](OC(=O)c3ccccc3)[C@]3(O)C[C@H](OC(=O)[C@H](O)[C@@H](NC(=O)c4ccccc4)c4ccccc4)C(C)=C1C3(C)C)[C@]1(OC(C)=O)CO[C@@H]1C[C@@H]2O [Taxol]
IC50 [1]: 0.44 µg/mL (≈ 0.515 µM)
IC50 [2]: 0.22 µg/mL (≈ 0.258 µM)
IC50 [3]: 0.28 µg/mL (≈ 0.328 µM)
IC50 [4]: 0.12 µg/mL (≈ 0.141 µM)
IC50 [5]: 0.49 µg/mL (≈ 0.574 µM)
